“And” between values parts separate entries of the source, which are not always exact repeats. Equal values may be shown once.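 In this assay, cells in 96-well plates receive the compound at five concentrations for 48 hours. Endpoints are linearly interpolated between the surrounding concentrations. GI50: concentration for 50% inhibition of growth. TGI is the concentration that stops growth completely.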
Legend:
Experiment in all cases: DTP human tumour cell line panel, 48 h
ACHN renal = system: ACHN renal
A549 NSCLC = system: A549 NSCLC
OVCAR-4 ovarian = system: OVCAR-4 ovarian
NCI-H460 lung = system: NCI-H460 lung
UO-31 renal = system: UO-31 renal
HS 578T breast = system: HS 578T breast
CAKI-1 renal = system: CAKI-1 renal
SK-OV-3 ovarian = system: SK-OV-3 ovarian
SF-295 CNS = system: SF-295 CNS
MCF7 breast = system: MCF7 breast

| SMILES | GI50 (ACHN renal) | TGI (ACHN renal) | GI50 (A549 NSCLC) | TGI (A549 NSCLC) | GI50 (OVCAR-4 ovarian) | TGI (OVCAR-4 ovarian) | GI50 (NCI-H460 lung) | TGI (NCI-H460 lung) | GI50 (UO-31 renal) | GI50 (HS 578T breast) | TGI (HS 578T breast) | GI50 (CAKI-1 renal) | TGI (CAKI-1 renal) | GI50 (SK-OV-3 ovarian) | TGI (SK-OV-3 ovarian) | GI50 (SF-295 CNS) | TGI (SF-295 CNS) | GI50 (MCF7 breast) | TGI (UO-31 renal) | TGI (MCF7 breast) |
| --- | --- | --- | --- | --- | --- | --- | --- | --- | --- | --- | --- | --- | --- | --- | --- | --- | --- | --- | --- | --- |
| CC(=O)c1c(C(F)(F)F)n([O-])c2ccc(Cl)cc2[n+]1=O | 0.69 µM | 4.96 µM | 2.5 µM | 11.6 µM | 19 µM | 50.8 µM | 0.0191 µM | 0.286 µM | 1.92 µM | 6.65 µM | > 26.5 µM | 3.69 µM | 13.5 µM | 6.65 µM | 19.9 µM | 2.23 µM | 5.92 µM | 0.216 µM | – | – |
| NS(=O)(=O)c1cc2c(cc1Cl)NC(Cc1ccccc1)NS2(=O)=O (stereo not given) | – | > 100 µM | – | > 100 µM | – | > 100 µM | – | > 100 µM | – | – | > 100 µM | – | > 100 µM | – | > 100 µM | – | > 100 µM | – | > 100 µM | > 100 µM |
| C=C1C[C@](OC)([C@H](O)C(=O)N[C@@H](OC)[C@@H]2C[C@@H](O)C(C)(C)[C@@H](C[C@@H](COC)OC)O2)O[C@H](C)[C@@H]1C | 0.00233 µM | 0.0114 µM | 0.00129 µM | 0.00558 µM | 0.00227 µM | 0.0198 µM | 0.00072 µM | 0.00266 µM | 0.00267 µM | 0.00136 µM | 0.0041 µM | 0.00184 µM | 0.00544 µM | 0.00194 µM | 0.0078 µM | 0.000353 µM | 0.00181 µM | – | 0.0295 µM | 0.00145 µM |
| CCC(C)n1cc(C)c2c(C(=O)NCc3c(C)cc(C)[nH]c3=O)cc(Br)cc21 (stereo not given) | 46.1 µM | > 100 µM | 39.7 µM | > 100 µM | 37.2 µM | > 100 µM | 40.3 µM | > 100 µM | 70.5 µM | 35 µM | > 100 µM | 94.1 µM | > 100 µM | > 100 µM | > 100 µM | 29.9 µM | > 100 µM | 29.4 µM | > 100 µM | > 100 µM |
| CN1CCCNc2c(c(=O)c2=O)NCCCN(C)CCCNc2c(c(=O)c2=O)NCCCN(C)CCCNc2c(c(=O)c2=O)NCCCN(C)CCCNc2c(c(=O)c2=O)NCCCN(C)CCCNc2c(c(=O)c2=O)NCCCN(C)CCCNc2c(c(=O)c2=O)NCCCN(C)CCCNc2c(c(=O)c2=O)NCCC1 | 1.66 µM | 6.87 µM | 6.05 µM | > 50 µM | 2.98 µM | 16.7 µM | 3.9 µM | > 50 µM | 2.01 µM | 9.15 µM | 31.2 µM | 6.14 µM | 13.1 µM | 2.46 µM | 8.29 µM | 5.52 µM | 12.9 µM | 6.52 µM | 9.19 µM | 19.5 µM |
| COc1ccc(Nn2c(SCC(=O)Nc3nc(-c4ccc(Cl)cc4)cs3)nc(C)c2C)cc1 | 2.27 µM | 8.76 µM | 3.32 µM | > 100 µM | 4.02 µM | > 100 µM | 2.69 µM | 10.6 µM | 2.62 µM | 11.8 µM | > 100 µM | 2.16 µM | > 100 µM | 4.24 µM | > 100 µM | 2.18 µM | > 100 µM | 3.36 µM | > 100 µM | 25.5 µM |
| CC(C)CCOc1ccc(-c2n[nH]c(C(F)(F)F)c2-c2cncc(C#N)c2)c(O)c1 | 2.54 µM | 9.02 µM | 2.24 µM | 12 µM | 3.48 µM | > 100 µM | 2.5 µM | 12.5 µM | 1.98 µM | 2.91 µM | 21.4 µM | 3.17 µM | 13.6 µM | 2.2 µM | 6.6 µM | 2.33 µM | 6.7 µM | 2.23 µM | 7.61 µM | > 100 µM |
| CCN(CC)c1cc(/C=C/c2ccc(OC)c(OC)c2)nc2cc(F)c(F)cc12 | 2.56 µM | 9.76 µM | 30 µM | > 100 µM | 27 µM | > 100 µM | 67.8 µM | > 100 µM | 38.7 µM | 3.09 µM | 12.3 µM | 19 µM | > 100 µM | 1.98 µM | 4.54 µM | 2.03 µM | 4.63 µM | 15.9 µM | > 100 µM | > 100 µM |
| O=[N+]([O-])c1ccc(-c2nc(-c3ccccc3)c(-c3ccccc3)n2-c2ccccc2)cc1 | 2.62 µM | 27.4 µM | 3.01 µM | 12.6 µM | 2.94 µM | 14.9 µM | 2.43 µM | 7.06 µM | 1.99 µM | 2.74 µM | 14.4 µM | 3.04 µM | > 28.4 µM | 2.03 µM | 9.21 µM | 2.68 µM | 8.25 µM | 2.04 µM | 6.67 µM | 6.28 µM |
| OCCCN=NNc1ccc(-c2nc3ccccc3[nH]2)cc1 | 24.4 µM | 64 µM | 2.62 µM | > 100 µM | 3.78 µM | > 100 µM | 4.65 µM | > 100 µM | 23.9 µM | 4.54 µM | 21.9 µM | 15.4 µM | 39.3 µM | 24.2 µM | 73 µM | 2.87 µM | 7.58 µM | 0.0891 µM | 78.1 µM | 2.4 µM |
| CC(=O)N1CC(Nc2ccc(OC(F)(F)F)cc2)=CC1=O | 8.27 µM | > 100 µM | 2.01 µM | > 100 µM | 4.84 µM | > 100 µM | 0.696 µM | > 100 µM | 19.4 µM | 3.11 µM | > 100 µM | 3.05 µM | > 100 µM | 3.53 µM | > 100 µM | 2.86 µM | > 100 µM | 0.436 µM | > 100 µM | > 100 µM |
| Cc1cccc(Oc2nccc(-c3c(-c4ccc(F)cc4)ncn3C3CCNCC3)n2)c1C | 6.11 µM | > 25 µM | > 14.3 µM | > 25 µM | 7.9 µM | > 25 µM | 6.24 µM | > 15 µM | 4.97 µM | 8.9 µM | > 16.2 µM | 8.79 µM | > 19.8 µM | 5.72 µM | 12.5 µM | 5.56 µM | 14 µM | 6.68 µM | > 19.9 µM | > 14.4 µM |
| CC(C)(C)c1nc2c(o1)C(=O)c1ccccc1C2=O | – | 5.69 µM | – | 8.22 µM | – | 2.44 µM | – | 8.19 µM | – | – | 4.26 µM | – | 6.77 µM | – | 10.2 µM | – | 4.25 µM | – | 6.23 µM | 1.35 µM |
| Cc1cc2cc3cc(C)c(N(C)C)cc3nc2cc1N(C)C | 4.76 µM | > 100 µM | 3 µM | > 100 µM | 2.25 µM | 19.5 µM | 2.37 µM | 11.5 µM | 6 µM | 1.89 µM | 18.1 µM | 2.22 µM | 25.3 µM | 2.87 µM | 25.4 µM | 1.81 µM | 8.52 µM | 1.76 µM | > 100 µM | > 100 µM |
| CC(=O)OC1CC(n2cc(F)c(=O)[nH]c2=O)OC1CO (stereo not given) | – | > 77.8 µM | – | > 90.8 µM | – | > 100 µM | – | > 100 µM | – | – | > 100 µM | – | > 100 µM | – | > 100 µM | – | > 89 µM | – | > 92.6 µM | > 28.3 µM |
| CC1/C=C/C=C/C=C/C=C/C=C/C=C/C=C/C(O[C@@H]2O[C@H](C)[C@H](O)[C@@H](O)[C@@H]2N)CC(O)C(C(=O)O)C(O)CC(=O)CC(O)CC(O)CC(O)CC(=O)CCCC(=O)CC(=O)OC1C(C)CC(C)C(O)CC(=O)c1ccc(N)cc1 (stereo not given in full) | 0.057 µM and 0.18 µM | 0.106 µM and 0.319 µM | 0.0561 µM and 0.169 µM | 0.101 µM and 0.305 µM | 0.0693 µM and 0.246 µM | 0.154 µM and 0.697 µM | 0.0611 µM and 0.229 µM | 0.11 µM and 0.633 µM | 0.0456 µM and 0.159 µM | 0.0765 µM and 0.329 µM | 0.211 µM and 1.58 µM | 0.0583 µM and 0.186 µM | 0.107 µM and 0.357 µM | 0.0674 µM and 0.298 µM | 0.119 µM and 0.908 µM | 0.0692 µM and 0.232 µM | 0.155 µM and 0.605 µM | 0.0797 µM and 0.422 µM | 0.0882 µM and 0.328 µM | 0.173 µM and 1.59 µM |
| COc1cc2c(cc1OCCOS(C)(=O)=O)N=C[C@@H]1CCCN1C2=O | 16 µM | 29.5 µM | – | > 100 µM | – | 58.5 µM | – | > 100 µM | 15.2 µM | – | 81 µM | 17.7 µM | 32.1 µM | – | > 100 µM | – | 75.4 µM | – | 33.1 µM | > 100 µM |
| CCCCCCCC/C=C/CCCCCCCCC1=NCCN1CCO | 2.6 µM | 8.39 µM | 2.67 µM | 7.41 µM | 7 µM | 30.7 µM | 1.81 µM | 3.32 µM | 1.76 µM | 2.37 µM | 7.68 µM | 3.61 µM | 14.8 µM | 16.1 µM | 33.6 µM | 1.93 µM | 4.05 µM | 1.77 µM | 3.75 µM | 4.02 µM |
| O=P(O)(O)c1ccccc1 (tested in a mixture with another compound) | – | > 100 µM | – | > 100 µM | – | > 100 µM | – | > 100 µM | – | – | > 100 µM | – | > 100 µM | – | > 100 µM | – | > 100 µM | – | > 100 µM | > 100 µM |
